From patent US9725442B2, “Heterocyclic derivative having PGD2 receptor antagonist activity” (Shionogi & Co., Ltd., priority 2011, dated 2017)
Read-outs that look alike come from different tables or passages of the source.

Assays:
CRTH2 = CRTH2 (Homo sapiens (Human), UniProt Q9Y5Y4); assay: CRTH2 receptor binding inhibitory activity ([3H]-PGD2 displacement, membranes of CRTH2-expressing K562 cell); conditions: [3H]-PGD2 displacement, membrane of CRTH2-expressing K562 cell, read-out: Ki
Experimental: Cell membrane was prepared from CRTH2-expressing K562 cell. The cell membrane (20 μg/well) was mixed with reaction buffer (50 mM Tris/HCl, pH 7.4, 10 mM MgCl2). Then, [^3H]-PGD2 was added to the mixture and incubated for 60 min at room temperature. […] Then, the mixture was filtrated with glass paper immediately. The filter paper was washed several times and radio activity on the filter was measured. Specific binding was defined as difference between total and non-specific binding (radio activity with 10 μM PGD2). Ki values for each compound were calculated from displacement curve.

Human DP1 receptor = Human DP1 receptor (Homo sapiens (Human), UniProt Q13258); assay: Human DP1 inhibitory activity in DP1-expressing cell (PGD2-induced cAMP); format: cell-based
Experimental: Compounds were categorized as AA (cAMP is less than 100 nM) and A (cAMP is more than 100 nM and less than 5000 nM) as shown in Table 99 and 100.

[1] = CRTH2 receptor binding, categorized AAAA/AAA
[2] = category of cAMP IC50, human DP1 receptor expressing Jurkut cell
[3] = IC50 of PGD2 (60 nM)-induced cAMP increase, human DP1 receptor expressing Jurkut cell

Chain of CRTH2 (Q9Y5Y4 whole entry): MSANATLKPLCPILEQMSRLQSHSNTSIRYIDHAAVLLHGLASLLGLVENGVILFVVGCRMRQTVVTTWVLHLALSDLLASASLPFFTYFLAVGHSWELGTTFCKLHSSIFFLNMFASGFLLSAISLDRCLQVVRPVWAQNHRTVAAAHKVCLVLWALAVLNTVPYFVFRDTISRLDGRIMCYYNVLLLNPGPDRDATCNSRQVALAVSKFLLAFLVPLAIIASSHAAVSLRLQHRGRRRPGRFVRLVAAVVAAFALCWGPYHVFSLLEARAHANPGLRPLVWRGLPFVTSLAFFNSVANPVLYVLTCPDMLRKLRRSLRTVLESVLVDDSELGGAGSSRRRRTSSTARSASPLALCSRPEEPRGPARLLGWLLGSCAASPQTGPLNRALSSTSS
Chain of Human DP1 receptor (Q13258 whole entry): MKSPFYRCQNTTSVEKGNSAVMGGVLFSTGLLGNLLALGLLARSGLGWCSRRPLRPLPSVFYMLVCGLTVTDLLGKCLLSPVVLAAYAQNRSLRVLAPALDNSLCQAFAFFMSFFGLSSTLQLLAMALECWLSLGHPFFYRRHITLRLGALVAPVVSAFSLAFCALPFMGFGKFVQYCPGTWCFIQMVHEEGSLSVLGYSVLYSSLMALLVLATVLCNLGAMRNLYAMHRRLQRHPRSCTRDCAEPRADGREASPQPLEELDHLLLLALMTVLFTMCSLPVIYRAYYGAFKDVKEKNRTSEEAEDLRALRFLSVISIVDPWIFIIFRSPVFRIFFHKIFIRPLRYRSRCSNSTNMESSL

Row | Compound | Ki (CRTH2; [1]) [nM] | IC50 (Human DP1 receptor; [2]) [nM] | IC50 (Human DP1 receptor; [3]) [nM] | Ki (CRTH2) [nM]
1 | C[C@]1(F)CN(S(=O)(=O)c2ccc(F)cc2)C[C@@H]1n1nc(CC(=O)O)c2ccccc21 (racemic) [Compound I-227] | < 100 | 100 to 5000 | – | –
2 | CCOc1ccc(S(=O)(=O)N2C[C@H](n3nc(CC(=O)O)c4ccccc43)[C@@](C)(F)C2)cc1 (racemic) [Compound I-228] | < 100 | < 100 | – | –
3 | CCOc1ccc(S(=O)(=O)N2C[C@@H](C)[C@@H](n3nc(C(O)C(=O)O)c4ccccc43)C2)cc1 (single isomer, unassigned) [Compound I-306] | 100 to 5000 | 100 to 5000 | – | –
4 | CCOc1ccc(S(=O)(=O)N2C[C@@H](C)[C@@H](n3nc(C(O)C(=O)O)c4ccccc43)C2)cc1 (single isomer, unassigned) [Compound I-307] | 100 to 5000 | 100 to 5000 | – | –
5 | CC(C)Oc1ccc(S(=O)(=O)N2C[C@H](n3nc(CC(=O)O)c4ccc(F)cc43)C[C@@H]2C(N)=O)cc1 [Compound I-3] | 100 to 5000 | 100 to 5000 | 350 | –
6 | CNC(=O)[C@@H]1C[C@@H](n2nc(CC(=O)O)c3ccc(F)cc32)CN1S(=O)(=O)c1ccc(OC(C)C)cc1 [Compound I-4] | 100 to 5000 | 100 to 5000 | – | 320
7 | CC(C)Oc1ccc(S(=O)(=O)N2C[C@H](n3nc(CC(=O)O)c4ccc(F)cc43)C[C@H]2C(=O)N(C)C)cc1 [Compound I-5] | 100 to 5000 | 100 to 5000 | – | –
8 | CC(C)Oc1ccc(S(=O)(=O)N2C[C@@H](n3nc(CC(=O)O)c4ccc(F)cc43)C[C@H]2C)cc1 [Compound I-8] | < 100 | 100 to 5000 | – | –
9 | CC(C)Oc1ccc(S(=O)(=O)N2C[C@H](n3nc(CC(=O)O)c4ccc(F)cc43)C[C@@H]2CF)cc1 [Compound I-13] | < 100 | < 100 | – | –
10 | CC(C)Oc1ccc(S(=O)(=O)N2C[C@H](n3nc(CC(=O)O)c4ccc(F)cc43)C[C@H]2CC#N)cc1 [Compound I-14] | < 100 | 100 to 5000 | – | –
11 | COC[C@H]1C[C@@H](n2nc(CC(=O)O)c3ccc(F)cc32)CN1S(=O)(=O)c1ccc(OC(C)C)cc1 [Compound I-17] | < 100 | < 100 | – | –
12 | CC(C)Oc1ccc(S(=O)(=O)N2C[C@H](n3nc(CC(=O)O)c4ccc(F)cc43)C[C@@H]2C(F)F)cc1 [Compound I-22] | < 100 | < 100 | – | –
13 | Cc1cccn(C[C@H]2C[C@@H](n3nc(CC(=O)O)c4ccc(F)cc43)CN2S(=O)(=O)c2ccc(OC(C)C)cc2)c1=O [Compound I-23] | < 100 | 100 to 5000 | – | –
14 | CC(C)Oc1ccc(S(=O)(=O)N2C[C@H](O)[C@@H](n3nc(CC(=O)O)c4ccc(F)cc43)C2)cc1 [Compound I-25] | < 100 | 100 to 5000 | – | –
15 | CC(C)Oc1ccc(S(=O)(=O)N2CC(F)[C@@H](n3nc(CC(=O)O)c4ccc(F)cc43)C2)cc1 (stereo partly shown) [Compound I-26] | < 100 | 100 to 5000 | – | –
16 | CO[C@@H]1CN(S(=O)(=O)c2ccc(OC(C)C)cc2)C[C@@H]1n1nc(CC(=O)O)c2ccc(F)cc21 [Compound I-30] | 100 to 5000 | 100 to 5000 | – | 140
17 | CC(C)Oc1ccc(S(=O)(=O)N2C[C@H](C)[C@@H](n3nc(CC(=O)O)c4cccc(F)c43)C2)cc1 [Compound I-70] | < 100 | – | – | –
18 | CCOc1ccc(S(=O)(=O)N2C[C@H](n3nc(CC(=O)O)c4ccccc43)[C@@](C)(F)C2)cc1 [Compound I-309] | – | < 100 | – | –
19 | CCOc1ccc(S(=O)(=O)N2C[C@H](n3nc(CC(=O)O)c4ccccc43)C[C@H]2C(N)=O)cc1 [Compound I-321] | – | 100 to 5000 | – | –
20 | CC(C)Oc1ccc(S(=O)(=O)N2C[C@H](n3nc(CC(=O)O)c4ccc(F)cc43)C[C@@H]2COc2ccccc2F)cc1 [Compound I-340] | – | 100 to 5000 | – | –

More lines, now with the values ahead:

Row | Ki (CRTH2; [1]) [nM] | IC50 (Human DP1 receptor; [2]) [nM] | IC50 (Human DP1 receptor; [3]) [nM] | Ki (CRTH2) [nM] | Compound
21 | < 100 | 100 to 5000 | – | – | CCOc1ccc(S(=O)(=O)N2C[C@H](n3nc(CC(=O)O)c4ccccc43)[C@@](C)(F)C2)cn1 (racemic) [Compound I-207]
22 | < 100 | 100 to 5000 | – | – | COc1ccc(S(=O)(=O)N2C[C@H](n3nc(CC(=O)O)c4ccccc43)[C@@](C)(F)C2)cn1 (racemic) [Compound I-208]
23 | 100 to 5000 | 100 to 5000 | – | – | CC(C)Oc1ccc(S(=O)(=O)N2CC[C@@H](n3nc(CC(=O)O)c4ccc(F)cc43)[C@H]2C)cc1 [Compound I-1]
24 | 100 to 5000 | 100 to 5000 | – | – | CC(C)Oc1ccc(S(=O)(=O)N2C[C@H](n3nc(CC(=O)O)c4ccc(F)cc43)C[C@H]2C(N)=O)cc1 [Compound I-2]
25 | 100 to 5000 | 100 to 5000 | – | – | CC(C)NC(=O)[C@@H]1C[C@@H](n2nc(CC(=O)O)c3ccc(F)cc32)CN1S(=O)(=O)c1ccc(OC(C)C)cc1 [Compound I-6]
26 | < 100 | 100 to 5000 | – | 8.2 | CC(C)Oc1ccc(S(=O)(=O)N2C[C@H](n3nc(CC(=O)O)c4ccc(F)cc43)C[C@H]2C)cc1 [Compound I-10]
27 | 100 to 5000 | < 100 | 99 | – | CC(C)Oc1ccc(S(=O)(=O)N2C[C@H](n3nc(CC(=O)O)c4ccc(F)cc43)C[C@@H]2CO)cc1 [Compound I-11]
28 | < 100 | 100 to 5000 | – | – | CC(C)Oc1ccc(S(=O)(=O)N2C[C@H](n3nc(CC(=O)O)c4ccc(F)cc43)C[C@H]2CF)cc1 [Compound I-12]
29 | < 100 | 100 to 5000 | – | 56 | CC(C)Oc1ccc(S(=O)(=O)N2C[C@H](n3nc(CC(=O)O)c4cc(Cl)ccc43)C[C@H]2C)cc1 [Compound I-15]
30 | < 100 | 100 to 5000 | – | – | COC[C@@H]1C[C@@H](n2nc(CC(=O)O)c3ccc(F)cc32)CN1S(=O)(=O)c1ccc(OC(C)C)cc1 [Compound I-16]
31 | < 100 | 100 to 5000 | – | – | CC(C)Oc1ccc(S(=O)(=O)N2C[C@H](n3nc(CC(=O)O)c4ccc(F)cc43)C[C@@H]2CC#N)cc1 [Compound I-18]
32 | < 100 | 100 to 5000 | – | – | CC(C)Oc1ccc(S(=O)(=O)N2C[C@H](n3nc(CC(=O)O)c4ccc(F)cc43)C[C@@H]2Cn2ccnc2)cc1 [Compound I-20]
33 | < 100 | 100 to 5000 | – | – | CC(C)Oc1ccc(S(=O)(=O)N2C[C@H](n3nc(CC(=O)O)c4ccc(F)cc43)CC2(C)C)cc1 [Compound I-24]
34 | < 100 | 100 to 5000 | – | – | CC(C)Oc1ccc(S(=O)(=O)N2CC(=O)C(n3nc(CC(=O)O)c4ccc(F)cc43)C2)cc1 (stereo not shown) [Compound I-27]
35 | 100 to 5000 | < 100 | – | – | CC(C)Oc1ccc(S(=O)(=O)N2CC=C(n3nc(CC(=O)O)c4ccc(F)cc43)C2)cc1 [Compound I-28]
36 | < 100 | < 100 | – | – | CC(C)Oc1ccc(S(=O)(=O)N2C[C@@H](C)[C@@H](n3nc(CC(=O)O)c4ccc(F)cc43)C2)cc1 [Compound I-29]
37 | – | – | – | 2.1 | CC(C)Oc1ccc(S(=O)(=O)N2C[C@@H](C)[C@@H](n3nc(CC(=O)O)c4ccc(Cl)cc43)C2)cc1 [Compound I-33]
38 | – | < 100 | – | – | Cc1ccc2c(CC(=O)O)nn([C@H]3CN(S(=O)(=O)c4ccc(OC(C)C)cc4)C[C@@]3(C)F)c2c1 [Compound I-89]
39 | – | 100 to 5000 | – | – | CCOc1ccc(S(=O)(=O)N2C[C@@H](n3nc(CC(=O)O)c4ccc(F)cc43)[C@@H](C)[C@@H]2C(N)=O)cc1 [Compound I-154]
40 | – | 100 to 5000 | – | – | CCOc1ccc(S(=O)(=O)N2C[C@@H](C)[C@@H](n3nc(CC(=O)OC(C)C)c4ccccc43)C2)cc1 [Compound I-257]
41 | – | 100 to 5000 | – | – | CC(C)Oc1ccc(S(=O)(=O)N2C[C@H](n3nc(CC(=O)O)c4ccc(F)cc43)C[C@@H]2COCC(O)CO)cc1 (stereo partly shown) [Compound I-281]
42 | – | < 100 | – | – | CCOc1ccc(S(=O)(=O)N2C[C@@H](C)[C@@H](n3nc(C(C)(OC)C(=O)O)c4ccccc43)C2)cc1 (stereo partly shown) [Compound I-286]
43 | – | < 100 | – | – | CCOc1ccc(S(=O)(=O)N2C[C@@H](C)[C@@H](n3nc(C(C)(C)C(=O)O)c4ccccc43)C2)cc1 [Compound I-335]
44 | – | 100 to 5000 | – | – | CCOc1ccc(S(=O)(=O)N2C[C@@H](C)[C@@H](n3nc(C(F)C(=O)O)c4ccccc43)C2)cc1 (stereo partly shown) [Compound I-337]
45 | – | 100 to 5000 | – | – | CC(C)Oc1ccc(S(=O)(=O)N2C[C@H](n3nc(CC(=O)O)c4ccc(F)cc43)C[C@@H]2COc2ccccn2)cc1 [Compound I-339]
46 | 100 to 5000 | – | – | 100 | CCOc1ccc(S(=O)(=O)N2C[C@@H](n3nc(CC(=O)O)c4ccccc43)[C@@H]3COC[C@@H]32)cc1 [Compound I-367]
